Laboratory results: ChEMBL document CHEMBL1152560, “Substituted 2-arylbenzothiazoles as kinase inhibitors: hit-to-lead optimization” (Bioorg Med Chem, 2009)

Legend:
[1] = molecular target: Interferon-induced, double-stranded RNA-activated protein kinase (Homo sapiens) (UniProt P19525); assay: Residual activity of EIF2AK2 at 1 uM by microplate scintillation counting
[2] = molecular target: T1, Serine/threonine-protein kinase D1 (Homo sapiens) (UniProt Q15139); assay: Residual activity of PKCmu at 1 uM by microplate scintillation counting
T1 sequence (whole entry): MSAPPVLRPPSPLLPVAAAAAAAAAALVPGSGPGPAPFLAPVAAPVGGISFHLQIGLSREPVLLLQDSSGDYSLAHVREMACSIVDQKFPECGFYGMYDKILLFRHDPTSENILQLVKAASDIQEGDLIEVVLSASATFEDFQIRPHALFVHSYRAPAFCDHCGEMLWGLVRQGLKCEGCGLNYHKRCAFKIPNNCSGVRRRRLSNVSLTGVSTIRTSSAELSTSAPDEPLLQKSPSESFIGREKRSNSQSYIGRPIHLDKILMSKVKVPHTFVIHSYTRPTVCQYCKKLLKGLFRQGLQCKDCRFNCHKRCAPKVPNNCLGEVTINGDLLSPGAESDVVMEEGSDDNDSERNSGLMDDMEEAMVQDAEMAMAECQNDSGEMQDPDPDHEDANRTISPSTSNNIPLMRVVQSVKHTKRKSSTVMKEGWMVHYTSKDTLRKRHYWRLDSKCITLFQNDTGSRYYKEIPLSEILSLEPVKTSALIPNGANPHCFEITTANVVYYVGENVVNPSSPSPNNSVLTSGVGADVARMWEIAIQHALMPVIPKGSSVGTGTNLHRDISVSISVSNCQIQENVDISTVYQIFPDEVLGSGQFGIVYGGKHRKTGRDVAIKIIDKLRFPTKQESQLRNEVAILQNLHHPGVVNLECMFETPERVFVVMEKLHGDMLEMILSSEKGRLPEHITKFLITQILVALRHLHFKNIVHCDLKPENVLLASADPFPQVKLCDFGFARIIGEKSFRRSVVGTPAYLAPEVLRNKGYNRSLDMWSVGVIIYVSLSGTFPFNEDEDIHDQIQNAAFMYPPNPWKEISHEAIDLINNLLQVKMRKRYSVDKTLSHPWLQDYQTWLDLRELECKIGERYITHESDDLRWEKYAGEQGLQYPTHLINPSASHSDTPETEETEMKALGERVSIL

[3] = molecular target: Serine/threonine-protein kinase Nek6 (Homo sapiens) (UniProt Q9HC98); assay: Residual activity of NEK6 at 1 uM by microplate scintillation counting
[4] = molecular target: Serine/threonine-protein kinase PLK1 (Homo sapiens) (UniProt P53350); assay: Residual activity of PLK1 at 1 uM by microplate scintillation counting
[5] = molecular target: T2, Ephrin type-B receptor 3 (Homo sapiens) (UniProt P54753); assay: Residual activity of EPHB3 at 10 uM by microplate scintillation counting
T2 sequence (whole entry): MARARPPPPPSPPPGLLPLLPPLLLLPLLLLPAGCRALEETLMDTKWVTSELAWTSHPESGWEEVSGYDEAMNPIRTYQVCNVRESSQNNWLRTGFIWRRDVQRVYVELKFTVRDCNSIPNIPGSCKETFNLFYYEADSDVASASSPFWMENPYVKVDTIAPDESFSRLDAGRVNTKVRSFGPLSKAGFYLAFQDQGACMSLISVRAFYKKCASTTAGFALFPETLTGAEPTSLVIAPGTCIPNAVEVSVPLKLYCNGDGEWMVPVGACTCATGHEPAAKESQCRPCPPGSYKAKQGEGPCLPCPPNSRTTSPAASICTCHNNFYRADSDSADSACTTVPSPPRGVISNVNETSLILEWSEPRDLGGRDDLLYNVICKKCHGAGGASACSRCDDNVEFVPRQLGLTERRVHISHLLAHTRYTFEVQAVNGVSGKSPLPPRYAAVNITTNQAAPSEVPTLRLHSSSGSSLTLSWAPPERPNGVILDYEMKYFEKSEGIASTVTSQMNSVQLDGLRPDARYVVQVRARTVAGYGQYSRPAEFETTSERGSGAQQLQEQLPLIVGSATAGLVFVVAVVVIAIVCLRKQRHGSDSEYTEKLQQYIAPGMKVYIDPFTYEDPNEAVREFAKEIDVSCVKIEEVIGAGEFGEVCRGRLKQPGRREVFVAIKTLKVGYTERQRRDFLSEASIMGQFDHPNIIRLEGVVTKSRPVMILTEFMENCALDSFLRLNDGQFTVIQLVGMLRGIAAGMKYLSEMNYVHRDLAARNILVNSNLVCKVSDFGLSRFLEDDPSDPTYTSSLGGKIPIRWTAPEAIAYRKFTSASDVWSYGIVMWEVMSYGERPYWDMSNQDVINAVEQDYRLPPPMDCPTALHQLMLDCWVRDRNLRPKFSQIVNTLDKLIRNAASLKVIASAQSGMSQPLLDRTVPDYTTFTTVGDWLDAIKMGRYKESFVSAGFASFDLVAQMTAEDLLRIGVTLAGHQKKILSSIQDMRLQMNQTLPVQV

[6] = molecular target: Protein-tyrosine kinase 6 (Homo sapiens) (UniProt Q13882); assay: Residual activity of BRK at 1 uM by microplate scintillation counting
[7] = tested on: Epidermal growth factor receptor (Homo sapiens), P00533 [L858R,T790M]; assay: Residual activity of EGFR T790M/L858R mutant at 0.1 uM by microplate scintillation counting
[8] = molecular target: T3, Lymphokine-activated killer T-cell-originated protein kinase (Homo sapiens) (UniProt Q96KB5); assay: Residual activity of PBK at 10 uM by microplate scintillation counting
T3 sequence (whole entry): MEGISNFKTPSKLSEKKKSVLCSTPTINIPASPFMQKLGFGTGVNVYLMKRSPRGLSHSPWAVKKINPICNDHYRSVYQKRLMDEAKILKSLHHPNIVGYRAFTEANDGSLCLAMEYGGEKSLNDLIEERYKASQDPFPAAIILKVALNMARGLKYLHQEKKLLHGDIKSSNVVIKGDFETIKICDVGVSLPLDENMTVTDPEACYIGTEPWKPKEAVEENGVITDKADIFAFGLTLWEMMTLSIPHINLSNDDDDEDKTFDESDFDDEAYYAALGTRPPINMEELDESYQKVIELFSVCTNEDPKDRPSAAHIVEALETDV

[9] = molecular target: Serine/threonine-protein kinase PAK 5 (Homo sapiens) (UniProt Q9P286); assay: Residual activity of PAK7 at 0.1 uM by microplate scintillation counting
[10] = molecular target: Ribosomal protein S6 kinase alpha-6 (Homo sapiens) (UniProt Q9UK32); assay: Residual activity of RPS6KA6 at 10 uM by microplate scintillation counting
[11] = molecular target: Ribosomal protein S6 kinase beta-2 (Homo sapiens) (UniProt Q9UBS0); assay: Residual activity of S6Kbeta at 0.1 uM by microplate scintillation counting
[12] = molecular target: Serine/threonine-protein kinase 33 (Homo sapiens) (UniProt Q9BYT3); assay: Residual activity of STK33 at 0.1 uM by microplate scintillation counting
Sequence of Serine/threonine-protein kinase 33 (Homo sapiens) (Q9BYT3 whole entry, looked up): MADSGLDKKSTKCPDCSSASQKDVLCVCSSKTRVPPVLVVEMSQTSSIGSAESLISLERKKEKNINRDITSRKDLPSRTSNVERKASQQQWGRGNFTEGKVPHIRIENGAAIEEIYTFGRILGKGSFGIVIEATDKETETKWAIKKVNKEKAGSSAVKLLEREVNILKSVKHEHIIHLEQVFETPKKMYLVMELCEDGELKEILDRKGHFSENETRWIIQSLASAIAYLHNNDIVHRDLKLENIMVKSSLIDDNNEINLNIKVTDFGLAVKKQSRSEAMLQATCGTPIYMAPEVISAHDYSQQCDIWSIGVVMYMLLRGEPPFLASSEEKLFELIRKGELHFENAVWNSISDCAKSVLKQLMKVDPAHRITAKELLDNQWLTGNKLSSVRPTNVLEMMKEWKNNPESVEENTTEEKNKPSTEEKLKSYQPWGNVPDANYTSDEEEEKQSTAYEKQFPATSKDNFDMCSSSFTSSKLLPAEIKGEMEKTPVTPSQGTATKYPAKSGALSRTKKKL

Sequence of Ribosomal protein S6 kinase alpha-6 (Homo sapiens) (Q9UK32 whole entry): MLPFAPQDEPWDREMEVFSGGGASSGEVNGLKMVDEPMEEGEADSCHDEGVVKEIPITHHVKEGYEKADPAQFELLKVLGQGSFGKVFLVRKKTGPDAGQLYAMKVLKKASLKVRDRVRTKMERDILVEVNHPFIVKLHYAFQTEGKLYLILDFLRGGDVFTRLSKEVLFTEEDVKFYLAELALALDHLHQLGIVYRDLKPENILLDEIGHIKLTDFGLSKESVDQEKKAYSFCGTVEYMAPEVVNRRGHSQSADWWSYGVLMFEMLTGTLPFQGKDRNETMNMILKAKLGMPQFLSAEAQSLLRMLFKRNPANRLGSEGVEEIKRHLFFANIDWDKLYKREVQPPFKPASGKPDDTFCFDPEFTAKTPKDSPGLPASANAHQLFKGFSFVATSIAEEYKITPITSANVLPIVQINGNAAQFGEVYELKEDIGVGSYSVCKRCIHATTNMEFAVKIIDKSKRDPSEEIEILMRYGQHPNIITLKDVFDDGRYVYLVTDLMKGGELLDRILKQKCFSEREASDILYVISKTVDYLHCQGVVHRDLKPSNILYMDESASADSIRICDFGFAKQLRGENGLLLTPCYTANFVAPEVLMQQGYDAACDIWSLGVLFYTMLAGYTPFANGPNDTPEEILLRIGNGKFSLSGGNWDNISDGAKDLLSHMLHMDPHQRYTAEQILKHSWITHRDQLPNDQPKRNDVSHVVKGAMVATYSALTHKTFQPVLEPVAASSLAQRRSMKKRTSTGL
Sequence of Serine/threonine-protein kinase PAK 5 (Homo sapiens) (Q9P286 whole entry, looked up): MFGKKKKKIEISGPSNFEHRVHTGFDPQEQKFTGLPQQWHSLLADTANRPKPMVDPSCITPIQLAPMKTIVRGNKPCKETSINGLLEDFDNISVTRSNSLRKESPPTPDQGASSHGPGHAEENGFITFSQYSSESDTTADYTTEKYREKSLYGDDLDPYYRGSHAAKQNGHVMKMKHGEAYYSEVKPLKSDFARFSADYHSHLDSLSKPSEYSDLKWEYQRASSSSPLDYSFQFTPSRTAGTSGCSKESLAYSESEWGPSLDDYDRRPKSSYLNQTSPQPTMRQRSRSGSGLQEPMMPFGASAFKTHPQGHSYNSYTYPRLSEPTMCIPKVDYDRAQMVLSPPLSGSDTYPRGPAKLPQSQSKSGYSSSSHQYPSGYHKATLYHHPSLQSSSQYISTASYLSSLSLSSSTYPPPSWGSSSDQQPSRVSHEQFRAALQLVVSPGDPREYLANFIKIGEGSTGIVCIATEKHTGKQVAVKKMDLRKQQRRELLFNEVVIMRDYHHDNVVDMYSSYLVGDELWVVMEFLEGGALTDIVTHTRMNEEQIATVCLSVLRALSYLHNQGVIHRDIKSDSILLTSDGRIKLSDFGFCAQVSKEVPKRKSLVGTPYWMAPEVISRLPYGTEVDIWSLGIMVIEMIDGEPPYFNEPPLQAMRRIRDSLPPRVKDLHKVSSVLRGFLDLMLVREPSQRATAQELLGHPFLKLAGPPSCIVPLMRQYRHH
Sequence of Protein-tyrosine kinase 6 (Homo sapiens) (Q13882 whole entry, looked up): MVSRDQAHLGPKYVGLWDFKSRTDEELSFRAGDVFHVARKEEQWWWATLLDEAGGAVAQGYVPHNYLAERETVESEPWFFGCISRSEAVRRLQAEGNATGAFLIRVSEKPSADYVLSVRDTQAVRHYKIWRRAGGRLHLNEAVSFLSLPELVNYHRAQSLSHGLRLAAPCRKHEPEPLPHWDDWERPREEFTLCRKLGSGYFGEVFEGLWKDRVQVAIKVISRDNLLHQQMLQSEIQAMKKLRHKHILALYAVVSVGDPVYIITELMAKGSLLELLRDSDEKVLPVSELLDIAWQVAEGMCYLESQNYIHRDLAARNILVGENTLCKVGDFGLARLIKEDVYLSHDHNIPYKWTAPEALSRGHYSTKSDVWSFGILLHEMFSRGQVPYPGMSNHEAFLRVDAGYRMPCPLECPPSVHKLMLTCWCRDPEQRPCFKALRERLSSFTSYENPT
Sequence of Serine/threonine-protein kinase PLK1 (Homo sapiens) (P53350 whole entry): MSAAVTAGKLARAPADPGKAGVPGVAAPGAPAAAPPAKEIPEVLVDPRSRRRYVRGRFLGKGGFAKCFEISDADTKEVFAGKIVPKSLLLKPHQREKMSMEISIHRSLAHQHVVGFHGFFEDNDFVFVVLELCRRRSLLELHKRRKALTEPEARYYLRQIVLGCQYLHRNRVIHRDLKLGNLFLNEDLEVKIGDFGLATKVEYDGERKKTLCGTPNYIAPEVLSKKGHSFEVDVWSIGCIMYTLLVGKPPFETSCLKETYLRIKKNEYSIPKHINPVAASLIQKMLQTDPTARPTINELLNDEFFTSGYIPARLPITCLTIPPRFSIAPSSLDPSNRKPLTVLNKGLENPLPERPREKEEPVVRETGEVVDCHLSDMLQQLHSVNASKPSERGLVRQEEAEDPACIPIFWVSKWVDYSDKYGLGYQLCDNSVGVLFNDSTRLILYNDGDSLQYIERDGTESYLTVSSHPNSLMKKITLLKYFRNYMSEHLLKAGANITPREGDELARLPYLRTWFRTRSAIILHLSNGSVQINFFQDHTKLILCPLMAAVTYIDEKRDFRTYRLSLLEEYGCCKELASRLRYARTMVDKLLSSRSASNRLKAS
Sequence of Serine/threonine-protein kinase Nek6 (Homo sapiens) (Q9HC98 whole entry): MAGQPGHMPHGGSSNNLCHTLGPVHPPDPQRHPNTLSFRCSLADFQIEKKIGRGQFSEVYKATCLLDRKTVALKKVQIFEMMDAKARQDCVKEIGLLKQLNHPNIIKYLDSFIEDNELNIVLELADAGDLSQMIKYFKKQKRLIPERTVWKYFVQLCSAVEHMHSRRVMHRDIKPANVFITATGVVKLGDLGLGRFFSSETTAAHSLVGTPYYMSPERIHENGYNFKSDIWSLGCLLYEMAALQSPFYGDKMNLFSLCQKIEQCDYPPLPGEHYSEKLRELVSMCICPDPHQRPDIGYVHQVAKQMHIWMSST
Sequence of Interferon-induced, double-stranded RNA-activated protein kinase (Homo sapiens) (P19525 whole entry): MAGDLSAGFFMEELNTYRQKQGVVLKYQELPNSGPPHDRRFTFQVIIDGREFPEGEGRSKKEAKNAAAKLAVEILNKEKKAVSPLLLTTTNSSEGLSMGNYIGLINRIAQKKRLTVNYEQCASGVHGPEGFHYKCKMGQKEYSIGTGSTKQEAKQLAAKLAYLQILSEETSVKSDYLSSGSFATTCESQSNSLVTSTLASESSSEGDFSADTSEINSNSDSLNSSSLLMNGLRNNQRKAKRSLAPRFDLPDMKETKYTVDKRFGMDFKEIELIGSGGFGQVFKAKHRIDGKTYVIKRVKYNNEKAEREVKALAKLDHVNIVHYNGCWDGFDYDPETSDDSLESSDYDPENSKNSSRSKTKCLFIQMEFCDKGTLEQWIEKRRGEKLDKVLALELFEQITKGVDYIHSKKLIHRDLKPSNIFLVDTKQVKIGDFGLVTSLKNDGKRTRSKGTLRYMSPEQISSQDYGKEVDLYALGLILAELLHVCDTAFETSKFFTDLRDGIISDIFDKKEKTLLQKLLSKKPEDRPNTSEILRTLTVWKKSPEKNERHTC
Sequence of Ribosomal protein S6 kinase beta-2 (Homo sapiens) (Q9UBS0 whole entry): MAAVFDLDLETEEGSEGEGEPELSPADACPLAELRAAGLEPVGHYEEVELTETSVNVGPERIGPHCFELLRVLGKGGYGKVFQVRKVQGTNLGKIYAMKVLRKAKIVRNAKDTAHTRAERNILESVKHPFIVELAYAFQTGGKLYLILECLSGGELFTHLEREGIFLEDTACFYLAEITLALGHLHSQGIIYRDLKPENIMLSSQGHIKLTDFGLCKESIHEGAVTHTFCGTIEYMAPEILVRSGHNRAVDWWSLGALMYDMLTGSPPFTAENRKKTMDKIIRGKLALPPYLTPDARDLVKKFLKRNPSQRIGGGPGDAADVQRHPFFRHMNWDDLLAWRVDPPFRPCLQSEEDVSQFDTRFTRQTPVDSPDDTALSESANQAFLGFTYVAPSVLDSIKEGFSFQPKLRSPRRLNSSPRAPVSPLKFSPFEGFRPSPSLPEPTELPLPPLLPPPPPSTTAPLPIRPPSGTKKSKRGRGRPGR

`COc1cc2c(Oc3ccc(-c4nc5ccccc5s4)cc3)ncnc2cc1OCCCN1CCN(C)CC1` gave a residual activity [1] of 73%, a residual activity [2] of 89% and a residual activity [3] of 96%. For the same compound, the residual activity [4] was 100%, the residual activity [5] was 372% and the residual activity [6] was 7%. For the same compound, the residual activity [7] was 100%, the residual activity [8] was 102% and the residual activity [9] was 80%. For the same compound, the residual activity [10] was 35%, the residual activity [11] was 42% and the residual activity [12] was 81%.
Work on `COc1cc2c(Oc3ccc(-c4nc5ccccc5s4)cc3)ncnc2cc1OCCCN1CCCC1` yielded a residual activity [1] of 83%, a residual activity [2] of 100% and a residual activity [3] of 84%. The residual activity [4] was 88%, the residual activity [5] was 227% and the residual activity [6] was 8%. The residual activity [7] was 98%, the residual activity [8] was 85% and the residual activity [9] was 92%. It also gave a residual activity [10] of 50%, a residual activity [11] of 47% and a residual activity [12] of 96%.
`COc1cc2c(Oc3ccc(-c4nc5ccccc5s4)cc3F)ncnc2cc1OCCCN1CCN(C)CC1` gave a residual activity [1] of 72%, a residual activity [2] of 89% and a residual activity [3] of 102%. The residual activity [4] was 97%, the residual activity [5] was 105% and the residual activity [6] was 4%. For the same compound, the residual activity [7] was 101%, the residual activity [8] was 65% and the residual activity [9] was 84%. The residual activity [10] was 32%, the residual activity [11] was 55% and the residual activity [12] was 85%.
